Laboratory results as given in ChEMBL document CHEMBL3751710, “Cyclic RGD peptidomimetics containing 4- and 5-amino-cyclopropane pipecolic acid (CPA) templates as dual αVβ3 and α5β1 integrin ligands” (Bioorg Med Chem, 2016).
pIC50: −log10 of the molar value.

Assays:
Integrin alpha-V/beta-3 = Integrin alpha-V/beta-3 (Homo sapiens, UniProt P05106+P06756); assay: Binding affinity to integrin alphav/beta3 heterodimer in human M21 cells assessed as inhibition of integrin-mediated human M21 cell adhesion to vitronectin incubated for 30 mins in presence of MnCl2; format: cell-based
Integrin alpha-5/beta-1 = Integrin alpha-5/beta-1 (Homo sapiens, UniProt P05556+P08648); assay: Binding affinity to integrin alpha5/beta1 heterodimer in human K562 cells assessed as inhibition of integrin-mediated human K562 cell adhesion to fibronectin incubated for 30 mins in presence of MnCl2; format: cell-based
Sequence of Integrin alpha-5/beta-1 (P05556 21-798 limits assumed): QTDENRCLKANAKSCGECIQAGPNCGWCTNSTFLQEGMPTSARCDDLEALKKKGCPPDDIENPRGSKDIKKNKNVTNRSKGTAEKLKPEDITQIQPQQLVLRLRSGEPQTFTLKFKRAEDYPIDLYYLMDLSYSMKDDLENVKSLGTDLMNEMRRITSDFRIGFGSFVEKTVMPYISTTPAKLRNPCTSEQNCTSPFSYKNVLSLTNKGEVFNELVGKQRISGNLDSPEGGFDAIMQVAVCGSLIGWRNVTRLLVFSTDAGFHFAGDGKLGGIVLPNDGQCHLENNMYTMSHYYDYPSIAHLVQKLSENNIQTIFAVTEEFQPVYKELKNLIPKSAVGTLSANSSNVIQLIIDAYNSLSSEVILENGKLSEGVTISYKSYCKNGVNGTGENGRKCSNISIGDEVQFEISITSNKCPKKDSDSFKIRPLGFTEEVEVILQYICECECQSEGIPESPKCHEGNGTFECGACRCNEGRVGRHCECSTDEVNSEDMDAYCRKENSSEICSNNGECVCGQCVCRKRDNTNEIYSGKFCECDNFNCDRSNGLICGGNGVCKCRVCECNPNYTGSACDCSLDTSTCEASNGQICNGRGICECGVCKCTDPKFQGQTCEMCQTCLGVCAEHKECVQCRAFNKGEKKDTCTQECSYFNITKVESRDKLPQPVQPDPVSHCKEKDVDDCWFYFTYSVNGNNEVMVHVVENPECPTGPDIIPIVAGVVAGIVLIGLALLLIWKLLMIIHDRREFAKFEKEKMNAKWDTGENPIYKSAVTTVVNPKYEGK
Sequence of Integrin alpha-5/beta-1 (P08648 42-894 limits assumed): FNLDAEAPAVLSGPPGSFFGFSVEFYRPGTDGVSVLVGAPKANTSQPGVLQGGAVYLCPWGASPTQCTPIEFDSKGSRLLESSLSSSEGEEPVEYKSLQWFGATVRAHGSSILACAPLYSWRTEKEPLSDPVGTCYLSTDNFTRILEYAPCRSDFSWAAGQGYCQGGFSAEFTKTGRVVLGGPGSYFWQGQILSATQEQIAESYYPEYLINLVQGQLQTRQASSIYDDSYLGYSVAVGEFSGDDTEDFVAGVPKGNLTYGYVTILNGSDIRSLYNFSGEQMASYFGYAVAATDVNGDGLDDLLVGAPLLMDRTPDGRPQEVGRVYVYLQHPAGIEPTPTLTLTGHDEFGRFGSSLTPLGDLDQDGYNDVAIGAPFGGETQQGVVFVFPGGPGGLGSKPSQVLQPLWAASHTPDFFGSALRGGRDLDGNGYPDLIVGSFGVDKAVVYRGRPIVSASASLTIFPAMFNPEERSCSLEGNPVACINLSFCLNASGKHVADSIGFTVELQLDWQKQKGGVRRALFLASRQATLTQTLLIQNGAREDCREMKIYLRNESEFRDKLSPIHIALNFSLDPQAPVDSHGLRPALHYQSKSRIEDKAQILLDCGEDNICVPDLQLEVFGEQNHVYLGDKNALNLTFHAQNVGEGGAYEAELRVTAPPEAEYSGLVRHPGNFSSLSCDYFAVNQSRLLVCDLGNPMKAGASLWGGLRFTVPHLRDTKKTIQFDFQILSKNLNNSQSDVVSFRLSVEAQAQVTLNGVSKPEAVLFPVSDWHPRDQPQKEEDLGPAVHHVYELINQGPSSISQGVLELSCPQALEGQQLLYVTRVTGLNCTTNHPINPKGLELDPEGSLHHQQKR
Sequence of Integrin alpha-5/beta-1 (P08648 895-1049 limits assumed): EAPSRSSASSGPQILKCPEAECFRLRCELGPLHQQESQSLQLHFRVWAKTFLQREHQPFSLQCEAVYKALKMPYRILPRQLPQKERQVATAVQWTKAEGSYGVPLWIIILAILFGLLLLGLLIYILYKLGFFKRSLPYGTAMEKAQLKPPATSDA

Sequence of Integrin alpha-V/beta-3 (P05106 27-788 limits assumed): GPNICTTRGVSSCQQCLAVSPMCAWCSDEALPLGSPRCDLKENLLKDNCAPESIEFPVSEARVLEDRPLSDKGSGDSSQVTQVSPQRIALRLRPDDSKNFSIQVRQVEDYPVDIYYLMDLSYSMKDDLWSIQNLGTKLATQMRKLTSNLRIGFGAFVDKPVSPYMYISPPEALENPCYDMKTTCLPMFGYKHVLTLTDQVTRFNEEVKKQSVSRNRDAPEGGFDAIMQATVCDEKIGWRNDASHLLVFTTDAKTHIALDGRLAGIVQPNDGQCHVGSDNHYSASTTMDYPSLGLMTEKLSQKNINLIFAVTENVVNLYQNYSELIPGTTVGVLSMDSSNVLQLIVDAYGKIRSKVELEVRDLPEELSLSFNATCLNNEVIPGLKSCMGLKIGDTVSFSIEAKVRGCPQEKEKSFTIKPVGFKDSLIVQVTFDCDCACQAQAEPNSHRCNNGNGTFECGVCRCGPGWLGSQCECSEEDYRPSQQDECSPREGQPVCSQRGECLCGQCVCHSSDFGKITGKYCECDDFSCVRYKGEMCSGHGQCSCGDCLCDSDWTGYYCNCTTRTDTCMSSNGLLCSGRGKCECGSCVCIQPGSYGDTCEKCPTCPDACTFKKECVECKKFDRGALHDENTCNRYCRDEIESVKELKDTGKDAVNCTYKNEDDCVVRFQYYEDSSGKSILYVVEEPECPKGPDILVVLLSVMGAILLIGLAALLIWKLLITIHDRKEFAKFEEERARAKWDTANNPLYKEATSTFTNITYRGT
Sequence of Integrin alpha-V/beta-3 (P06756 31-889 limits assumed): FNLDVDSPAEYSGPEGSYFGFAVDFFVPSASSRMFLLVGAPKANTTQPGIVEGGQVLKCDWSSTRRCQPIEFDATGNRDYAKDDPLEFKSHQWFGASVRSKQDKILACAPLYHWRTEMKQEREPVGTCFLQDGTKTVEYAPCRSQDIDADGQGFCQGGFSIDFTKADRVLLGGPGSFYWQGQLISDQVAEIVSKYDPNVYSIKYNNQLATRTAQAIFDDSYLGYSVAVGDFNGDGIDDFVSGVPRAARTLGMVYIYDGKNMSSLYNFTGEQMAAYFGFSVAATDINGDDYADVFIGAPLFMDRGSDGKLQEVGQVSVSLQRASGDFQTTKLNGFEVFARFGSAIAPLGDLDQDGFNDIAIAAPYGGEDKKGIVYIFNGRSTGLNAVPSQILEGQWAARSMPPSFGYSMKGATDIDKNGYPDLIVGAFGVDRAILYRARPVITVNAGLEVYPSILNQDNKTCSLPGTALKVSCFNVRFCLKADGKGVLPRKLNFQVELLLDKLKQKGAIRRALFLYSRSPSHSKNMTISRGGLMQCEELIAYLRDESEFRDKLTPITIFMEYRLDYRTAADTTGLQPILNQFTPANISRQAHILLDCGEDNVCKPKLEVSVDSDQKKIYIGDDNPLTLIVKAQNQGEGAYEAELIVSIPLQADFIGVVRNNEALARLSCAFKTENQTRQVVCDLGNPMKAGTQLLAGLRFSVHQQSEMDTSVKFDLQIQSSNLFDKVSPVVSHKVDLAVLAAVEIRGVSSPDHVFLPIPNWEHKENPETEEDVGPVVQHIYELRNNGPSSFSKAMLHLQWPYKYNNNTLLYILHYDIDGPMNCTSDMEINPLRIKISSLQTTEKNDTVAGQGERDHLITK
Sequence of Integrin alpha-V/beta-3 (P06756 891-1048 limits assumed): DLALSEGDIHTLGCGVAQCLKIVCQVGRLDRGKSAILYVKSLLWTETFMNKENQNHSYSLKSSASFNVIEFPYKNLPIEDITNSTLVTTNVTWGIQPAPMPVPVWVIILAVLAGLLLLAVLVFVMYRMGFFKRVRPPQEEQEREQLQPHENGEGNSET

pIC50 (Integrin alpha-V/beta-3)	pIC50 (Integrin alpha-5/beta-1)	Compound
8.62	7.59	COC(=O)N1CC[C@H]2NC(=O)[C@H](CC(=O)O)NC(=O)CNC(=O)[C@H](CCCNC(=N)N)NC(=O)[C@@]13C[C@@H]23
7.47	7.82	COC(=O)N1C[C@H]2C[C@H]3C[C@]31C(=O)N[C@@H](CCCNC(=N)N)C(=O)NCC(=O)N[C@@H](CC(=O)O)C(=O)N2
